Reference: the supplement of paper PMC10307832

How the values were obtained:
Assay in all cases: relative viability (nuclei count vs DMSO), 5 days (fraction); higher = more cells survive
[1] = compound: CC(C)N(CCCNC(=O)Nc1ccc(C(C)(C)C)cc1)C[C@H]1O[C@@H](n2ccc3c(N)ncnc32)[C@H](O)[C@@H]1O + O=C(CCCCCCC(=O)Nc1ccccc1)NO [Vorinostat] (partner 1 µM)
Summary of the method: (§1)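 Medians of duplicate plates are given as relative viability. That measure is the nuclei count in treated wells divided by the count in vehicle wells. Counts were taken on 4× images of lung cancer cell lines in 1536-well plates, 5 days after pin-tool dosing the day after seeding with one drug alone or a fixed anchor-drug dose plus five library-drug doses (not always all listed) in √10 steps.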

[2] = compound: CC(C)=CC[C@@H](O)C1=CC(=O)c2c(O)ccc(O)c2C1=O [Shikonin] + C[C@@H](Oc1cc(-c2cnn(C3CCNCC3)c2)cnc1N)c1c(Cl)ccc(F)c1Cl [Crizotinib] (partner 1 µM)
Summary of the method: as §1

[3] = compound: CC(C)N(CCCNC(=O)Nc1ccc(C(C)(C)C)cc1)C[C@H]1O[C@@H](n2ccc3c(N)ncnc32)[C@H](O)[C@@H]1O + CC(=O)c1c(C)c2cnc(Nc3ccc(N4CCNCC4)cn3)nc2n(C2CCCC2)c1=O [Palbociclib] (partner 0.5 µM)
Summary of the method: as §1

[4] = compound: CC(C)N(CCCNC(=O)Nc1ccc(C(C)(C)C)cc1)C[C@H]1O[C@@H](n2ccc3c(N)ncnc32)[C@H](O)[C@@H]1O + CC(=O)Nc1cccc(-n2c(=O)n(C3CC3)c(=O)c3c(Nc4ccc(I)cc4F)n(C)c(=O)c(C)c32)c1 [Trametinib] (partner 0.02 µM)
Summary of the method: as §1

UMC-11 was tested, and the relative viability ([1]; first compound 0.08 µM) was 0.357, the relative viability ([1]; first compound 0.253 µM) was 0.419 and the relative viability ([1]; first compound 0.8 µM) was 0.431. The relative viability ([1]; first compound 2.53 µM) was 0.35, the relative viability ([1]; first compound 8 µM) was 0.386 and the relative viability ([2]; first compound 0.01 µM) was 0.745. The relative viability ([2]; first compound 0.1 µM) was 0.559, the relative viability ([2]; first compound 0.3162 µM) was 0.658 and the relative viability ([2]; first compound 1 µM) was 0.633. The relative viability ([3]; first compound 0.08 µM) was 0.294, the relative viability ([3]; first compound 0.253 µM) was 0.316 and the relative viability ([3]; first compound 0.8 µM) was 0.304. It also gave a relative viability ([3]; first compound 2.53 µM) of 0.323, a relative viability ([3]; first compound 8 µM) of 0.28 and a relative viability ([4]; first compound 0.08 µM) of 0.691. For the same cell line, the relative viability ([4]; first compound 0.253 µM) was 0.541, the relative viability ([4]; first compound 0.8 µM) was 0.588 and the relative viability ([4]; first compound 2.53 µM) was 0.789. The relative viability ([4]; first compound 8 µM) was 0.796.
